Laboratory results published in US8343759B2, “Mammalian cell line expressing inducible c-Src” (National University Corporation Chiba University, priority 2007, dated 2013).
Entries after “also recorded” stand apart in the source; their conditions may differ.

Key:
10T½ cells = assay: PMA-stimulated macropinocytosis (RITC-dextran-labeled macropinosomes); type: cell-based, mouse; conditions: 10T½ cells pretreated with 5 μM SU6656 for 30 min, then 200 nM PMA plus 1 mg/ml RITC-dextran for 20 min
Procedure: Data represent means±SD from three independent experiments. […] For comparison, the open bar is a reproduction of the data of Src-CFP in FIG. 2D. B: COS-1 cells transfected with c-Src plus Src(SH4-Unique)-GFP were cultured for 24 h and visualized with anti-Src (red) immunofluorescence and GFP fluorescence (green). C: 10T½ cells transfected with Src(SH4-Unique)-GFP (control) were treated with 200 nM PMA plus 1 mg/ml RITC-dextran for 15 min (1 PMA). D: 10T½ cells expressing Src(SH4-Unique)-GFP were stimulated with 200 nM PMA and cells were monitored at 30-sec intervals. The time of PMA addition is indicated as 0 sec (00′00″). E: 10T½ cells expressing Lyn(SH4-Unique)-GFP were treated with 200 nM PMA for 30 min and imaged by GFP fluorescence and Nomarski optics. F: 10T½ cells were pretreated with 5 μM SU6656 or none for 30 min and then stimulated with 200 nM PMA plus 1 mg/ml RITC-dextran for 20 min. […] Data represent means±SD from three independent experiments. […] Arrows indicate macropinosomes. N, nucleus. Bars, 10 μm. Macropinosomes wider than 2 μm labeled by c-Src or mutants were counted. All values were expressed as means±D from three independent experiments. Rhodamine B-isothiocyanate (RITC)-dextran (Mr 70,000), PMA, and wortmannin were from Sigma-Aldrich. SU6656 (Blake et al., 2000) was from Calbiochem. EGF was a kind gift of M. N. Fukuda.

HeLa cells = assay: EGF-induced macropinosome formation marked with Src(SH4-Unique)-GFP; type: cell-based, human; conditions: serum-starved HeLa cells expressing Src(SH4-Unique)-GFP, pretreated 30 min with 5 μM SU6656 or 200 nM wortmannin, then 50 ng/ml EGF for 15 min
Procedure: During stimulation, cells were treated with 1 mg/ml RITC-dextran (B). White arrows indicate macropinosomes. […] The number of macropinosomes associated with Src(SH4-Unique)-GFP per 200 cells is shown. Data represent means±SD from three independent experiments. […] Equal amounts of lysates (input lysates) were analyzed by Western blotting with anti-pTyr and anti-actin antibodies. c-Src immunoprecipitates from lysates were analyzed by Western blotting with anti-Src[Y^418] and anti-Src antibodies. c-Src kinase activity was quantitated by measuring signal intensity using anti-Src[pY^418] antibody and normalized to the corresponding signal intensity detected by anti-Src. Results are expressed as mean values (fold) relative to the specific activity of c-Src in unstimulated control cells. […] The number of Src:(SH4-Unique)-GFP-labeled macropinosomes per 200 HeLa (left) or 100 A431 (right) cells was counted. Data represent means±SD from three independent experiments. […] F: Lysates were analyzed by Western blotting with anti-Src[Y^418], anti-Src, anti-pTyr, and anti-actin antibodies. […] White arrows indicate macropinosomes containing RITC-dextran. […] I: Co-localization of RITC-dextran with cathepsin D in macropinosomes was quantitated. […] Macropinosomes wider than 2 μm labeled by c-Src or mutants were counted. All values were expressed as means±D from three independent experiments. […]

c-Src = target: T1, c-Src (Homo sapiens, UniProt P12931); assay: c-Src kinase activity in immunoprecipitates by Western blotting with anti-Src[pY418]; type: cell-based; conditions: serum-starved HeLa cells pretreated with 5 μM SU6656, EGF for 15 min
T1 construct: endogenous in cells; host or cells: HeLa (serum-starved, EGF-stimulated)
Procedure: Results are expressed as mean values (fold) relative to the specific activity of c-Src in unstimulated control cells. […] F: Lysates were analyzed by Western blotting with anti-Src[Y^418], anti-Src, anti-pTyr, and anti-actin antibodies. […] Western blotting and immunoprecipitation were as described (Hirao et al., 1997; Mera et al., 1999; Yamaguchi et al., 2001; Kasahara et al., 2004). Cell lysates were prepared in Triton X-100 lysis buffer (50 mM HEPES, pH 7.4, 10% glycerol, 1% Triton X-100, 4 mM EDTA, 100 mM NaF, and 1 mM Na3VO4) containing protease inhibitors. For immunoprecipitation, lysates were incubated with protein G-Sepharose beads (Amersham) precoated with anti-Src (#327) overnight at 4° C.

EGFR = EGFR (Homo sapiens, UniProt P00533); assay: EGFR activation by Western blotting of lysates with anti-pTyr; type: cell-based; conditions: serum-starved HeLa cells pretreated with 5 μM SU6656, EGF for 15 min
Procedure: F: Lysates were analyzed by Western blotting with anti-Src[Y^418], anti-Src, anti-pTyr, and anti-actin antibodies. […] Cell lysates were prepared in Triton X-100 lysis buffer (50 mM HEPES, pH 7.4, 10% glycerol, 1% Triton X-100, 4 mM EDTA, 100 mM NaF, and 1 mM Na3VO4) containing protease inhibitors.

COS-I cells = assay: FRAP of Src-GFP on macropinosomes; type: cell-based; conditions: cycloheximide-treated COS-I cells, pretreated 10 min with 1 mM NEM or 0.5% tannic acid
Procedure: A-D: FRAP analysis of Src-GFP was performed in COS-I cells treated with cycloheximide. Cells expressing Src-GFP were pretreated with nothing (control) (A), I mM NEM (B), or 0.5% tannic acid (C) for 10 min. Enclosed areas (yellow circles) were photobleached and cells were monitored at 5-sec (A and C) or 60-sec intervals (B) for 10 min. Mean fluorescence intensities on macropinosomes were measured, and results are means±SD (control, n=4; NEM, n=3; Tannic acid, n=5). N, nucleus. Bars 5 μm. E: Equal amounts of lysates from S100 and P100 fractions of Src-GFP-expressing COS-I cells were analyzed by Western blotting with anti-Src, anti-cPLA2 (cytosol marker), and anti-desmoglein (plasma membrane marker) antibodies.
For live-cell imaging, cells cultured in 35-mm glass-based dishes were transiently transfected with plasmid DNA on the preceding day. Time-lapse monitoring was performed using a Fluoview FV5OO with a 40×1.00 oil objective. Images were obtained at low power laser (0.3-3.0% laser) using the 488 nm line of an argon laser. FRAP was performed as described (Kasahara et at., 2004). If necessary, COS-I cells were treated with 200 μg/ml cycloheximide (Sigma-Aldrich) for 2 h before images were obtained. […] Mean fluorescence intensities were quantitated using Fluoview Tiempo time course version 4.2 software. […]

EGFR, sequence (P00533 25-1210): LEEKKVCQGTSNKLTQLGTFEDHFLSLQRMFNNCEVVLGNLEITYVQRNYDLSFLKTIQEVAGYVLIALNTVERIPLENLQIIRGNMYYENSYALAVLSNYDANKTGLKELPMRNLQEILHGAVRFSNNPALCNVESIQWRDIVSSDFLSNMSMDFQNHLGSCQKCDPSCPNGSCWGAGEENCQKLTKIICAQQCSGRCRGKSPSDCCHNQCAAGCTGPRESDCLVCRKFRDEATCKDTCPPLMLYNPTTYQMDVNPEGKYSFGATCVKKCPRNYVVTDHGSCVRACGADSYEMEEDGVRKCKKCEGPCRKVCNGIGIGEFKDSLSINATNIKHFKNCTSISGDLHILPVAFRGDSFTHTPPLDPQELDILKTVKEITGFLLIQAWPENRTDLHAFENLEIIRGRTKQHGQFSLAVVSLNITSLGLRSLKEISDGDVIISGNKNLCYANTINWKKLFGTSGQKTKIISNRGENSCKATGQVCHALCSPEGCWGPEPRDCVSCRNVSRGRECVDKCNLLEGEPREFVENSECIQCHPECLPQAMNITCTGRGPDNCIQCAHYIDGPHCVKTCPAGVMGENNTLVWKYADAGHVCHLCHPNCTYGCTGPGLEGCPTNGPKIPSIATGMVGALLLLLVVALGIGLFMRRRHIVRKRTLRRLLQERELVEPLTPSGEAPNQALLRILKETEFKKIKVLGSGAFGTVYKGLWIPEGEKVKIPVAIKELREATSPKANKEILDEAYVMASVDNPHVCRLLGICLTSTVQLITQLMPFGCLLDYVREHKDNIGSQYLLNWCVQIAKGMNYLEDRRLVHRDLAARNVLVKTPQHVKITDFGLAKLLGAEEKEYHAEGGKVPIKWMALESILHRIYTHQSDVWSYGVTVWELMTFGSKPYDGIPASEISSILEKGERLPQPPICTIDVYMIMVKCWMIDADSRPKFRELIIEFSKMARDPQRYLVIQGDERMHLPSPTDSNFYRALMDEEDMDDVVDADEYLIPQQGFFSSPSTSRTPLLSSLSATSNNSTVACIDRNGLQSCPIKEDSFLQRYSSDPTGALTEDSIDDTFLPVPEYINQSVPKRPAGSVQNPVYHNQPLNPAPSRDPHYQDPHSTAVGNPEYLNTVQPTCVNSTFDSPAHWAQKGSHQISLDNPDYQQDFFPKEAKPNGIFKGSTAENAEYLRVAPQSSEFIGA
T1 sequence (P12931 whole entry): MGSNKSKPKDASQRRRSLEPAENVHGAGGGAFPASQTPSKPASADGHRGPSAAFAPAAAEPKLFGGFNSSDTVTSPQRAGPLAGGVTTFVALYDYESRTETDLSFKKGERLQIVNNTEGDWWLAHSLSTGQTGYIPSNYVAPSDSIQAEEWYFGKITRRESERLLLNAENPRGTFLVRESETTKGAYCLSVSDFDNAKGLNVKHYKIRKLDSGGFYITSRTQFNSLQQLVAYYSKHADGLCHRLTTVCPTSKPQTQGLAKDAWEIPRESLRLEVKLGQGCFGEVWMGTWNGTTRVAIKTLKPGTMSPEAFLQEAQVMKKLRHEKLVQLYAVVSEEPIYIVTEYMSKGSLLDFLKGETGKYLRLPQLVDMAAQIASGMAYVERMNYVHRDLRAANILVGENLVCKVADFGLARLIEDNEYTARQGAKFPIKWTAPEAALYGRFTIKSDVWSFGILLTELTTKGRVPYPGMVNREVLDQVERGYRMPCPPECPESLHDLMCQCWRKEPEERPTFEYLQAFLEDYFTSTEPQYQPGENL

SMILES | inhibition of PMA-stimulated macropinocytosis (10T½ cells) | inhibition of EGF-induced macropinosome formation (HeLa cells) | effect on c-Src activity (c-Src) | effect on EGFR activation (EGFR) | inhibition of fluorescence recovery of Src-GFP on macropinosomes (COS-I cells)
CN(C)S(=O)(=O)c1ccc2c(c1)/C(=C/c1cc3c([nH]1)CCCC3)C(=O)N2 [SU6656] | not significant; also recorded: not inhibited; also recorded: did not inhibit | partly inhibited | decreased c-Src activity below basal levels | without affecting | 
O=C(OC[C@H]1O[C@@H](OC(=O)c2cc(O)c(O)c(OC(=O)c3cc(O)c(O)c(O)c3)c2)[C@H](OC(=O)c2cc(O)c(O)c(OC(=O)c3cc(O)c(O)c(O)c3)c2)[C@@H](OC(=O)c2cc(O)c(O)c(OC(=O)c3cc(O)c(O)c(O)c3)c2)[C@@H]1OC(=O)c1cc(O)c(O)c(OC(=O)c2cc(O)c(O)c(O)c2)c1)c1cc(O)c(O)c(OC(=O)c2cc(O)c(O)c(O)c2)c1 [tannic acid] |  |  |  |  | partly inhibited
CCN1C(=O)C=CC1=O [NEM, N-ethyl maleimide] |  |  |  |  | inhibited
